# What was measured:
# bedstraw = assay: Test B pre/postemergence bedstraw; assay type: in vivo, Galium aparine
# How it was run: (§1)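 Response is a visual 0-to-10 score relative to untreated plants, where 0 means no effect and 10 means complete control, taken twelve to sixteen days after application. Treatments went onto soil at planting and onto foliage of 1- to 4-leaf plants, using a surfactant-containing non-phytotoxic solvent.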
# velvetleaf = assay: Test B pre/postemergence velvetleaf; assay type: in vivo, Abutilon theophrasti
# How it was run: as §1
# crabgrass = assay: Test B pre/postemergence crabgrass; assay type: in vivo, Digitaria sanguinalis
# How it was run: as §1
# wild oat = assay: Test B pre/postemergence wild oat; assay type: in vivo, Avena fatua
# How it was run: as §1
# rape = assay: Test B pre/postemergence rape; assay type: in vivo, Brassica napus
# How it was run: as §1
# giant foxtail = assay: Test B pre/postemergence giant foxtail; assay type: in vivo, Setaria faberii
# How it was run: as §1
# blackgrass = assay: Test B pre/postemergence blackgrass; assay type: in vivo, Alopecurus myosuroides
# How it was run: as §1
# soybean = assay: Test B pre/postemergence soybean; assay type: in vivo, Glycine max
# How it was run: as §1
# wheat = assay: Test B pre/postemergence wheat; assay type: in vivo, Triticum aestivum
# How it was run: as §1
# sugar beet = assay: Test B pre/postemergence sugar beet; assay type: in vivo, Beta vulgaris
# How it was run: as §1
# corn = assay: Test B pre/postemergence corn; assay type: in vivo, Zea mays
# How it was run: as §1
# morningglory = assay: Test B pre/postemergence morningglory; assay type: in vivo, Ipomoea hederacea
# How it was run: as §1
# purple nutsedge = assay: Test B pre/postemergence purple nutsedge; assay type: in vivo, Cyperus rotundus
# How it was run: as §1
# surinam grass = assay: Test B pre/postemergence surinam grass; assay type: in vivo, Brachiaria decumbens
# How it was run: as §1
# cocklebur = assay: Test B pre/postemergence cocklebur; assay type: in vivo, Xanthium strumarium
# How it was run: as §1
# pigweed = assay: Test B pre/postemergence pigweed; assay type: in vivo, Amaranthus retroflexus
# How it was run: as §1
# [1] = Postemergence, Rate 62 g/ha, scale 0 to 10, 0 is no effect, 10 is complete control
# [2] = Preemergence, Rate 125 g/ha, scale of 0 to 10 where 0 is no effect and 10 is complete control
# [3] = Preemergence, Rate 250 g/ha, scale 0 (no effect) to 10 (complete control)
# [4] = Rate 62 g/ha, Preemergence, scale 0 to 10
# [5] = Rate 250 g/ha, Postemergence, scale 0 to 10, 0 is no effect, 10 is complete control
# [6] = Rate 500 g/ha, Preemergence, scale 0 to 10 (0 no effect, 10 complete control)
# [7] = Postemergence, Rate 125 g/ha, scale of 0 to 10 where 0 is no effect and 10 is complete control
# [8] = Rate 500 g/ha, Postemergence, scale 0 to 10, 0 is no effect, 10 is complete control
structure (smiles),measurement,setting,value
CC(C)N(C(=O)n1oc(=O)n(CCCCl)c1=O)c1ccc(Cl)cc1 [Compound 749],"Plant response rating, Bedstraw",bedstraw; [1],3
same,"Plant response rating, Bedstraw",bedstraw; [2],0
same,Bedstraw plant response rating,bedstraw; [3],0
same,Bedstraw plant response rating,bedstraw; [4],0
same,Bedstraw plant response rating,bedstraw; [5],3
same,Bedstraw plant response rating,bedstraw; [6],4
same,"Plant response rating, Velvetleaf",velvetleaf; [1],0
same,Velvetleaf plant response rating,velvetleaf; [7],3
same,"Plant response rating, Velvetleaf",velvetleaf; [2],0
same,Velvetleaf plant response rating,velvetleaf; [3],0
same,Velvetleaf plant response rating,velvetleaf; [4],0
same,Velvetleaf plant response rating,velvetleaf; [5],3
same,Velvetleaf plant response rating,velvetleaf; [8],3
same,Velvetleaf plant response rating,velvetleaf; [6],2
same,"Plant response rating, Crabgrass",crabgrass; [1],4
same,Crabgrass plant response rating,crabgrass; [7],8
same,"Plant response rating, Crabgrass",crabgrass; [2],10
same,Crabgrass plant response rating,crabgrass; [3],10
same,Crabgrass plant response rating,crabgrass; [4],9
same,Crabgrass plant response rating,crabgrass; [5],9
same,Crabgrass plant response rating,crabgrass; [8],9
same,Crabgrass plant response rating,crabgrass; [6],10
same,"Plant response rating, Wild oats",wild oat; [1],0
same,Wild oats plant response rating,wild oat; [7],0
same,"Plant response rating, Wild oats",wild oat; [2],0
same,Wild oats plant response rating,wild oat; [3],5
same,Wild oats plant response rating,wild oat; [4],0
same,Wild oats plant response rating,wild oat; [5],0
same,Wild oats plant response rating,wild oat; [8],2
same,Wild oats plant response rating,wild oat; [6],8
same,"Plant response rating, Rape",rape; [1],2
same,Rape plant response rating,rape; [7],2
same,"Plant response rating, Rape",rape; [2],0
same,Rape plant response rating,rape; [3],0
same,Rape plant response rating,rape; [4],0
same,Rape plant response rating,rape; [5],6
same,Rape plant response rating,rape; [8],6
same,Rape plant response rating,rape; [6],5
same,"Plant response rating, Giant foxtail",giant foxtail; [1],3
same,Giant foxtail plant response rating,giant foxtail; [7],5
same,"Plant response rating, Giant foxtail",giant foxtail; [2],10
same,Giant foxtail plant response rating,giant foxtail; [3],10
same,Giant foxtail plant response rating,giant foxtail; [4],9
same,Giant foxtail plant response rating,giant foxtail; [5],9
same,Giant foxtail plant response rating,giant foxtail; [8],9
same,Giant foxtail plant response rating,giant foxtail; [6],10
same,"Plant response rating, Blackgrass",blackgrass; [1],5
same,Blackgrass plant response rating,blackgrass; [7],5
same,"Plant response rating, Blackgrass",blackgrass; [2],2
same,Blackgrass plant response rating,blackgrass; [3],6
same,Blackgrass plant response rating,blackgrass; [4],0
same,Blackgrass plant response rating,blackgrass; [5],6
same,Blackgrass plant response rating,blackgrass; [8],6
same,Blackgrass plant response rating,blackgrass; [6],9
same,"Plant response rating, Soybean",soybean; [1],3
same,Soybean plant response rating,soybean; [7],4
same,"Plant response rating, Soybean",soybean; [2],0
same,Soybean plant response rating,soybean; [3],2
same,Soybean plant response rating,soybean; [4],0
same,Soybean plant response rating,soybean; [5],5
same,Soybean plant response rating,soybean; [8],5
same,Soybean plant response rating,soybean; [6],3
same,"Plant response rating, Wheat",wheat; [1],0
same,Wheat plant response rating,wheat; [7],0
same,"Plant response rating, Wheat",wheat; [2],0
same,Wheat plant response rating,wheat; [3],1
same,Wheat plant response rating,wheat; [4],0
same,Wheat plant response rating,wheat; [5],0
same,Wheat plant response rating,wheat; [8],0
same,Wheat plant response rating,wheat; [6],1
same,"Plant response rating, Sugarbeets",sugar beet; [1],1
same,Sugarbeets plant response rating,sugar beet; [7],3
same,"Plant response rating, Sugarbeets",sugar beet; [2],2
same,Sugarbeets plant response rating,sugar beet; [3],6
same,Sugarbeets plant response rating,sugar beet; [4],0
same,Sugarbeets plant response rating,sugar beet; [5],4
same,Sugarbeets plant response rating,sugar beet; [8],4
same,Sugarbeets plant response rating,sugar beet; [6],7
same,"Plant response rating, Corn",corn; [1],0
same,Corn plant response rating,corn; [7],0
same,"Plant response rating, Corn",corn; [2],0
same,Corn plant response rating,corn; [3],0
same,Corn plant response rating,corn; [4],0
same,Corn plant response rating,corn; [5],0
same,Corn plant response rating,corn; [8],1
same,Corn plant response rating,corn; [6],0
same,"Plant response rating, Morningglory",morningglory; [1],2
same,Morningglory plant response rating,morningglory; [7],3
same,"Plant response rating, Morningglory",morningglory; [2],0
same,Morningglory plant response rating,morningglory; [3],0
same,Morningglory plant response rating,morningglory; [4],0
same,Morningglory plant response rating,morningglory; [5],5
same,Morningglory plant response rating,morningglory; [8],5
same,Morningglory plant response rating,morningglory; [6],0
same,"Plant response rating, Nutsedge",purple nutsedge; [1],0
same,Nutsedge plant response rating,purple nutsedge; [7],0
same,"Plant response rating, Nutsedge",purple nutsedge; [2],0
same,Nutsedge plant response rating,purple nutsedge; [3],0
same,Nutsedge plant response rating,purple nutsedge; [4],0
same,Nutsedge plant response rating,purple nutsedge; [5],0
same,Nutsedge plant response rating,purple nutsedge; [8],0
same,"Plant response rating, B. signalgrass",surinam grass; [1],2
same,B. signalgrass plant response rating,surinam grass; [7],2
same,B. signalgrass plant response rating,"surinam grass; Preemergence, Rate 62 g/ha, scale of 0 to 10 where 0 is no effect and 10 is complete control",0
same,"Plant response rating, B. signalgrass",surinam grass; [2],2
same,B. signalgrass plant response rating,surinam grass; [3],8
same,B. signalgrass plant response rating,surinam grass; [5],3
same,B. signalgrass plant response rating,surinam grass; [8],3
same,B. signalgrass plant response rating,surinam grass; [6],10
same,"Plant response rating, Cocklebur",cocklebur; [1],0
same,Cocklebur plant response rating,cocklebur; [7],2
same,"Plant response rating, Cocklebur",cocklebur; [2],0
same,Cocklebur plant response rating,cocklebur; [3],0
same,Cocklebur plant response rating,cocklebur; [5],4
same,Cocklebur plant response rating,cocklebur; [8],4
same,Cocklebur plant response rating,cocklebur; [6],0
same,"Plant response rating, Redroot pigweed",pigweed; [1],4
same,Redroot pigweed plant response rating,pigweed; [7],4
same,"Plant response rating, Redroot pigweed",pigweed; [2],5
same,Redroot pigweed plant response rating,pigweed; [3],7
same,Redroot pigweed plant response rating,pigweed; [4],0
same,Redroot pigweed plant response rating,pigweed; [5],4
same,Redroot pigweed plant response rating,pigweed; [8],7
same,Redroot pigweed plant response rating,pigweed; [6],9

# — US6737383B1, “Herbicidal oxadiazolidines” (priority 1999, dated 2004)
